Assay results: patent US12324568B2, “Mouthwash to deliver dyes for dental imaging” (BOARD OF SUPERVISORS OF LOUISIANA STATE UNIVERSITY AND …, priority 2020, dated 2025)
Like-named read-outs stand apart in the source and are kept apart here.

What was measured:
[1] = system: rat molars (erupted P31, unerupted P14); conditions: rat model, previous work, cited from earlier work
rat molars = experiment: ICG-assisted NIR dental imaging with in vivo mouthwash in living rats; set-up: species or system Sprague Dawley rats; conditions: rat model
Description: Self-breed Sprague Dawley rats, including eight postnatal day 31 (P31) and two P21 rats for erupted molars and sixteen P14 rats for unerupted molars, were utilized. To simulate the mouthwash with living rats, 10 μL ICG solution (1 mg/ml) was pipetted into the mouth of two P31 rats in vivo, and the rats were euthanized after 2 minutes. The other two P21 went through the same in vivo mouthwash procedure and euthanized after 1 minute. In addition, the mandibles were dissected from another two P31 rats directly after euthanasia, then washed with 10 μL ICG (1 mg/ml) solution ex vivo for 10 minutes. For the subcutaneous injection, every two P31 rats were euthanized at each time points 10 minutes and 24 hours, for the ICG injection on the back (5 mg/kg body weight). For the unerupted molars, two rats were sacrificed 1 minute after in vivo mouthwash, and the same for the erupted molars. […]
The imaging system is depicted in FIG. 1(A). A 785 nm laser source shined to the mandibles with fiber and filters, a NIR camera received the videos, and videos were recorded by computer. […]
Meanwhile, endoscopic imaging provided clearer morphologies of the first and second molars than wide-field imaging. […] As described in previous work,^29, 30 the intensity-mean difference Dmean_diff (IMD) was used as the image contrast for the quantitative evaluation of the target and background. […]

[2] = system: rat molars (erupted P31, unerupted P14); experiment: ICG-assisted NIR dental imaging after subcutaneous injection in rat model; type: in vivo, Sprague Dawley rats
Description: Self-breed Sprague Dawley rats, including eight postnatal day 31 (P31) and two P21 rats for erupted molars and sixteen P14 rats for unerupted molars, were utilized. To simulate the mouthwash with living rats, 10 μL ICG solution (1 mg/ml) was pipetted into the mouth of two P31 rats in vivo, and the rats were euthanized after 2 minutes. The other two P21 went through the same in vivo mouthwash procedure and euthanized after 1 minute. In addition, the mandibles were dissected from another two P31 rats directly after euthanasia, then washed with 10 μL ICG (1 mg/ml) solution ex vivo for 10 minutes. For the subcutaneous injection, every two P31 rats were euthanized at each time points 10 minutes and 24 hours, for the ICG injection on the back (5 mg/kg body weight). For the unerupted molars, two rats were sacrificed 1 minute after in vivo mouthwash, and the same for the erupted molars. To study concentration effect on imaging, 0.1, 0.5, 1, and 5 mg/kg of ICG were injected into eight P14 rats (two rats for each dosage, and euthanized for each concentration 4 hours after injection). For P14 rats to study imaging windows, two rats were euthanized at 10 minutes, 4 hours and 48 hours for posting ICG injection (5 mg/kg) respectively.
The imaging system is depicted in FIG. 1(A). A 785 nm laser source shined to the mandibles with fiber and filters, a NIR camera received the videos, and videos were recorded by computer. The mandibles were then extracted and imaged using ICG-assisted endoscopic NIR dental imaging, as described in previous publications.^29-31 In the endoscopic imaging, an output fiber was connected to the endoscope with a camera.^30 All experiments were approved by the Institutional Animal Care and Use Committee (IACUC) of Louisiana State University (Protocol #16-117) and followed the ethical guidelines of animal care.
Meanwhile, endoscopic imaging provided clearer morphologies of the first and second molars than wide-field imaging. The lingual and occlusal cusps of the molars could be easily distinguished, especially for the mouthwash treatment (FIG. 1(B)). As described in previous work,^29, 30 the intensity-mean difference Dmean_diff (IMD) was used as the image contrast for the quantitative evaluation of the target and background. To further reveal the efficiency of the mouthwash and local injection, a sampling line (yellow lines in FIG. 1) covering both molar regions and the surrounding tissues was used to calculate the image contrast of the molar and surrounding tissues.

For `CC1(C)C(/C=C/C=C/C=C/C=C2\N(CCCCS(=O)(=O)O)c3ccc4ccccc4c3C2(C)C)=[N+](CCCCS(=O)(=O)[O-])c2ccc3ccccc3c21` [ICG, indocyanine green], the imaging window ([1]; erupted molars) is given as 4 h, the imaging window ([1]; unerupted molar) is given as “about 96 hours” and the “time to achieve the same image contrast” value (rat molars) is given as 1 to 2 min. For the same molecule, the “visibility of dental structures” value ([2]; erupted molars (P31 rat), 24 hours after ICG injection) was “no dental structures could be observed”, the “visibility of dental structures” value ([2]; erupted molars (P31 rat), subcutaneous injection, imaging window 10 minutes) was “clearly observable” and the “minimal dye dosage to achieve recognizable anatomical imaging” value ([2]; subcutaneous injection, P14 rats (FIG. 9)) was 0.1 mg/kg (body weight). For the same molecule, the “visibility of dental structures” value ([2]; unerupted molars (P14 rats), imaging window 48 hours) was “could still be observed”.
